Measured values published in US10927075B2, “Compositions and methods relating to the treatment of cancer, autoimmune disease, and neurodegenerative disease” (THE JACKSON LABORATORY, priority 2014, dated 2021).

How the values were obtained:
[1] = system: Primary splenic B-cells from AID-expressing mice; assay: Cell viability of primary splenic B-cells, AID-expressing versus AID-negative mice; type: cell-based; settings: compared to primary splenic B-cells in AID-negative mice
Text: Primary splenic B-cells from AID-expressing mice were exposed to C-1523-1a and the BTK inhibitor ibrutinib and cell viability was compared to primary splenic B-cells in AID-negative mice (FIG. 9).

primary B-cells (AID+) = assay: Dose response in primary B-cells (AID+); type: cell-based; settings: FIG. 10
Protocol: Dose responses for C-1523 (blue) and C-1523-1a (red) in primary B-cells (AID+) was determined (FIG. 10).

[2] = Pharmacokinetics after single intravenous injection or oral gavage; type: in vivo, Sprague Dawley rats
Protocol: C-1523-1A was formulated in PBS with 5% DMSO and given via single intravenous injection (1 milligram per kilogram) or by oral gavage to Sprague Dawley rats (2 milligrams per kilogram). Plasma concentrations were measure by mass spectrometry at t=15 min, t=30 min, t=1 hr, t=2 hr, t=4 hr, and t=8 hr for the intravenous cohort and at t=1 hr, t-2 hr, t-3 hr, t-4 hr, t-5 hr, t-6 hr. […] Oral availability is 2-3% (FIG. 3).

[3] = system: non-Hodgkin's lymphoma model; assay: Non-Hodgkin's lymphoma model; settings: in vivo
Protocol: (§1) The effects of C-1523 have been tested in vitro in cultured cancer cells and in vivo with human cell samples. Preclinical pharmacokinetic analyses were conducted to determine the fate of the compound as it is administered.

[4] = Plasma concentration after administration of 2, 10, or 20 milligrams per kilogram; type: in vivo, Sprague Dawley rats; settings: Sprague Dawley, rat, 20 mg/kg dosing
Protocol: Pharmacokinetic measurements of DIDS, C-1523, and C-1523-1a following oral and intravenous administration to Sprague Dawly rats were made (FIGS. 4-6) and the plasma concentration of C-1523-1a at t=15 min, t=30 min, t=1 hr, t=2 hr, t=8 hr, and t=24 hr following administration of 2, 10, or 20 milligrams per kilogram to Sprague Dawley rats was determined (FIG. 7).
as §1

[5] = system: AID-expressing mouse B-lymphocytes
[6] = system: primary splenic B-cells from WT (AID-expressing) mice; settings: Ishida et al., 2009; Lamont et al., 2013; cited from earlier work
MEC-1 cells = assay: Micronuclei assay; type: cell-based, human; settings: cyclophosphamide treatment
[7] = system: Primary mouse B cells (WT); assay: Micronuclei assay; type: cell-based; settings: all genotypes tested (WT, AID−/−, and p53−/−), 5 μg/mL, 3 d
[8] = system: Primary AID-expressing B-cells; assay: Cell survival analysis; type: cell-based; settings: 100 nM versus vehicle (DMSO)
Protocol: FIG. 27 depicts a graph of cell survival analysis of primary AID-expressing B-cells treated with C-1523-1AD4 (100 nM) versus vehicle (DMSO).
Primary AID-expressing B-cells were sensitive to C-1523-1AD4 (FIG. 27).

CC(=O)Nc1ccc(/C=C/c2ccc(NC(=S)NC(C)C)cc2S(N)(=O)=O)c(S(N)(=O)=O)c1 [C-1523-1a, (E)-N-(4-(4-(3-isopropylthioureido)-2-sulfamoylstyryl)-3-sulfamoylphenyl)acetamide]
potency and selectivity for AID+ cells (cell viability) [1]: surprisingly potent and selective for AID+ cells | acute toxicity (in vivo): almost no acute toxicity | tolerance to prolonged drug exposure (single and multiple dose): excellent tolerance | concentration below which response is consistent (primary B-cells (AID+)): below 10 nM | AUC ([2]; Sprague Dawley, rat, plasma, single intravenous injection 1 milligram per kilogram): 971 ng·h/mL | half-life ([2]; Sprague Dawley, rat, plasma, single intravenous injection 1 milligram per kilogram, PBS with 5% DMSO): 1.5 h | Vd ([2]; Sprague Dawley, rat, plasma, single intravenous injection 1 milligram per kilogram, read-out: Vss): 0.29 L/kg | Oral availability ([2]; oral gavage 2 milligrams per kilogram): 2-3% | tumors [3]: successfully reduced tumors | half-life [4]: ~6 h

O=S(=O)(O)c1cc(N=C=S)ccc1C=Cc1ccc(N=C=S)cc1S(=O)(=O)O [DIDS, 4,4′-diisothiocyanatostilbene-2,2′-disulfonic acid, reference compound]
concentration eliciting AID-specific cytotoxicity [5]: 150 µM | cell death [6]: induces cell death in primary B-lymphocytes

O=P1(N(CCCl)CCCl)NCCCO1 (stereo not drawn) [cyclophosphamide, reference compound]
micronuclei relative to primary cells (MEC-1 cells): approximately half as much micronuclei as primary cells | micronuclei [7]: approximately 9%

disodium (E)-((5- acetamido-2-(2-(N- isobutyrylsulfamoyl)-4- (3-isopropylthioureido) styryl)phenyl)sulfonyl) (isobutyryl)amide [C-1523-1AD4]
sensitivity (cell survival) [8]: sensitive
